According to US12285012B2, “Compositions comprising pyridine carboxylate herbicides with acetolactate synthase (ALS) inhibitor herbicides” (Corteva Agriscience LLC, priority 2018, dated 2025):
Where “and” joins values, the source holds several entries; their conditions need not be identical. Identical values can stand only once.

What was measured:
Assay type in all cases: in vivo
[1] = system: broad-leaf dock (RUMOB, Rumex obtusifolius); assay: Greenhouse postemergence herbicidal effect; conditions: for Obs % visual injury: RUMOB
Summary of the method: (§1)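 Greenhouse plants at the second–third true leaf received overhead sprays (187 L/ha) of herbicide mixtures containing safener and oil adjuvant. Percent control or crop injury was judged by eye 20–22 d later on a 0–100 scale.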

[2] = system: small-flower flatsedge (CYPDI, Cyperus difformis); assay: Greenhouse postemergence herbicidal effect; conditions: Compound A 10 g/ha
Summary of the method: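 Plants at second or third true leaf stage, greenhouse-grown (~14 h photoperiod, about 23/22° C), sprayed at 187 L/ha with pyridine carboxylate herbicide (g ae/ha; with cloquintocet-mexyl safener unless noted) alone or plus ALS herbicide (g ai/ha) in 1.25% v/v oil adjuvant. Visual injury, 0 to 100% versus solvent-blank controls, after 20-22 d.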

[3] = system: large crabgrass (DIGSA, Digitaria sanguinalis); assay: Greenhouse postemergence herbicidal effect; conditions: for Obs % visual injury: DIGSA
Summary of the method: as §1

[4] = system: ivyleaf morningglory (IPOHE, Ipomoea hederacea); assay: Greenhouse postemergence herbicidal effect
Summary of the method: as §1

[5] = system: barnyard grass (ECHCG, Echinochloa crus-galli); assay: Greenhouse postemergence herbicidal effect; conditions: Compound A 10 g/ha
Summary of the method: as §1

[6] = system: Italian ryegrass (LOLMU, Lolium multiflorum); assay: Greenhouse postemergence herbicidal effect; conditions: Compound A 10 g/ha; safener mefenpyr-diethyl
Summary of the method: as §1

[7] = system: common sunflower (HELAN, Helianthus annuus); assay: Greenhouse postemergence herbicidal effect
Summary of the method: as §1

[8] = system: soybean (GLXMA, Glycine max); assay: Greenhouse postemergence herbicidal effect
Summary of the method: as §1

[9] = system: velvetleaf (ABUTH, Abutilon theophrasti); assay: Greenhouse postemergence herbicidal effect
Summary of the method: as §1

maize (ZEAMX, Zea mays) = assay: Greenhouse postemergence crop phytotoxicity; conditions: Compound A 10 g/ha; safener mefenpyr-diethyl
Protocol: (§2) Seeds of the desired test plant species were planted in a 90:10% v/v (volume/volume) mixture of PRO-MIX® BX (Premier Tech Horticulture, Quakertown, PA, USA) and PROFILE® GREENS GRADE™ (Profile Products LLC, Buffalo Grove, IL, USA) planting mixture, which typically has a pH of 5.2 to 6.2 and an organic matter content of at least 50 percent, in plastic pots with a surface area of 103.2 square centimeters (cm^2). […] The plants were grown for 7-36 days (d) in a greenhouse with an approximate 14-hour (h) photo-period which was maintained at about 23° C. during the day and 22° C. during the night. Nutrients and water were added on a regular basis and supplemental lighting was provided with overhead metal halide 1000-Watt lamps as necessary. The plants were employed for testing when they reached the second or third true leaf stage.
(§3) Emulsifiable concentrates of each of each pyridine carboxylate herbicide (Compound A or Compound B) were prepared at 100 grams acid equivalent per liter (g ae/L). The emulsifiable concentrates also included a safener, cloquintocet-mexyl, at 120 grams active ingredient per liter (g ai/L), unless otherwise noted below. An aliquot of each emulsifiable concentrate was placed in a 25 mL glass vial and diluted with an aqueous mixture of 1.25% (v/v) ACTIROB® B esterified rapeseed oil (Bayer Crop Science, Research Triangle Park, NC, USA) or MSO® Concentrate with LECI-TECH® methylated soybean oil (Loveland Products, Loveland, CO, USA) to obtain concentrated stock solutions at the highest application rate for each herbicide, based upon a 12 milliliter (mL) application volume at a rate of 187 liters per hectare (L/ha). The concentrated stock solutions were further diluted with an aqueous mixture of 1.25% v/v ACTIROB® B or MSO® Concentrate with LECI-TECH® to obtain stock solutions at reduced application rates for each herbicide. Spray solutions of the herbicide combinations (Compound A or Compound B plus ALS herbicide) were prepared by adding weighed amounts or aliquots of the ALS herbicides to the stock solutions of Compound A or Compound B to form 12-mL spray solutions in two- or three-way combinations. […]
(§4) The treated plants and control plants were placed in a greenhouse as described above and watered by sub-irrigation to prevent wash-off of the test compounds. After 20-22 d, the condition of the test plants as compared with that of the control plants was determined visually and scored on a scale of 0 to 100 percent where 0 corresponds to no injury and 100 corresponds to complete kill.

[10] = system: rice (ORYSA, Oryza sativa); assay: Greenhouse postemergence crop phytotoxicity; conditions: Compound A 10 g/ha; safener mefenpyr-diethyl
Protocol: as §2, §3, §4

[11] = system: spring rape (BRSNN, Brassica napus); assay: Greenhouse postemergence herbicidal effect
Summary of the method: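 Injury was rated visually after 20-22 d on a 0 (none) to 100% (complete kill) scale relative to solvent-sprayed controls, with sub-irrigation to avoid wash-off. Rates were given in g ae/ha or g ai/ha depending on component.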

[12] = Compound A 10 g/ha, safener mefenpyr-diethyl

N#CCOC(=O)c1nc(-c2ccc3cc[nH]c3c2F)c(F)c(N)c1Cl [Compound A, cyanomethyl 4-amino-3-chloro-5-fluoro-6-(7-fluoro-1H-indol-6-yl)pyridine-2-carboxylate]
% visual injury, Obs [1, 12]: 20% | RUMOB % visual injury Obs [1, 12]: 20% | % visual injury Obs [2]: 72% | % visual injury, Obs ([3]; 10 g/ha): 0% | % visual injury, Obs [3, 12]: 10% | DIGSA % visual injury Obs [3, 12]: 10% | % visual injury ([4]; Compound A 10 g/ha): 25% | % visual injury, Obs [4, 12]: 5% | IPOHE % visual injury Obs [4, 12]: 5% | % visual injury Obs [5]: 85% | % visual injury, Obs ([5]; safener mefenpyr-diethyl): 85% | ECHCG % visual injury Obs ([5]; safener mefenpyr-diethyl): 85% | % visual injury, Obs [6]: 10% | LOLMU % visual injury Obs [6]: 10% | % visual injury ([7]; Compound A 10 g/ha): 89% | % visual injury, Obs [7, 12]: 98% | HELAN % visual injury Obs [7, 12]: 98% | % visual injury, Obs [8, 12]: 95% | GLXMA % visual injury Obs [8, 12]: 95% | % visual injury, Obs ([9]; 10 g/ha): 48% | % visual injury, Obs [9, 12]: 73% | ABUTH % visual injury Obs [9, 12]: 73% | % visual injury, Obs (maize (ZEAMX, Zea mays)): 5% | ZEAMX % visual injury Obs (maize (ZEAMX, Zea mays)): 5% | % visual injury, Obs [10]: 5% | ORYSA % visual injury Obs [10]: 5% | % visual injury, Obs ([11]; 10 g/ha): 73% and 70% and 60% | % visual injury, Obs ([11]; BRSNN, Compound A 10 g/ha): 60% | Obs % visual injury ([11]; BRSNN, Compound A 10 g/ha): 55% | Obs % visual injury ([11]; BRSNN, Compound A 10 g/ha (Table 65)): 55% | % visual injury ([11]; Compound A 10 g/ha): 65% | % visual injury Obs ([11]; Compound A 10 g/ha): 60% | % visual injury, Obs ([11]; Compound A 10 g/ha): 55% | BRSNN % visual injury Obs ([11]; Compound A 10 g/ha (Examples 62-63)): 55% | % visual injury, Obs [11, 12]: 78% | BRSNN % visual injury Obs [11, 12]: 78%

C#CCOC(=O)c1nc(-c2ccc3cc[nH]c3c2F)c(F)c(N)c1Cl [Compound B, propargyl 4-amino-3-chloro-5-fluoro-6-(7-fluoro-1H-indol-6-yl)pyridine-2-carboxylate]
% visual injury, Obs ([1]; 10 g/ha): 15% | Obs % visual injury ([1]; Compound B 5 g/ha): 23% | Obs % visual injury ([1]; Compound B 10 g/ha): 18% | Obs % visual injury ([3]; Compound B 5 g/ha): 50% | Obs % visual injury ([3]; Compound B 10 g/ha): 63% | % visual injury, Obs ([4]; 10 g/ha): 0% | % visual injury, Obs ([7]; 10 g/ha): 100% | % visual injury, Obs ([8]; 10 g/ha): 73% | % visual injury, Obs ([9]; 10 g/ha): 68%
